# In US12084451B2, “Compositions and methods for reducing tactile dysfunction, anxiety, and social impairment” (President and Fellows of Harvard College, priority 2018, dated 2024):
# pEC50: −log10 of the molar value. “And” between values parts separate entries of the source, which are not always exact repeats. Equal values may be shown once.
# Columns and labels:
# hGABAA α2β3γ2 = hGABAA α2β3γ2 (Homo sapiens, UniProt P18507+P28472+P47869); experiment: hGABAA IonFlux HT PAM Assay, α2β3γ2; assay type: cell-based; conditions: for Mean Maximal Effect (% of Control): normalized to baseline peak current induced by EC20 GABA (0.8 μM) for 2 seconds
# Source text: (§1) Ligand-gated ion channels targeted were hGABAA α1β3γ2 and hGABAA α2β3γ2.
# (§2) Electrophysiological assays conducted to profile nine (9) compounds for activities on the on channel targets listed above for Positive Allosteric Modulator (PAM) activities using the IonFlux HT electrophysiological platform.
# The parameters measured are described in the Data Analysis section. […] Open circles represent data that has been excluded from the curve fitting. Where no curve fit was possible, n/c (not calculable) is listed.
# (§3) All wells included a final DMSO concentration of 0.33% including all control wells.
# (§4) All recordings were obtained from a holding potential of −60 mV. The compound addition sequence that was used for all additions was the same for all assays. […] The process was repeated with the next ascending concentration of test compound (FIG. 1).
# (§5) All data were first exported to an Excel compatible data file and then analyzed using Graph Pad Prism software.
# hGABAA α1β3γ2 = hGABAA α1β3γ2 (Homo sapiens, UniProt P14867+P18507+P28472); experiment: hGABAA IonFlux HT PAM Assay, α1β3γ2; assay type: cell-based; conditions: for Mean Maximal Effect (% of Control): normalized to baseline peak current induced by EC20 GABA (1 μM) for 2 seconds
# Source text: as §1, §2
# The parameters measured are described in the Data Analysis section.
# as §3, §4, §5
# [1] = Estimated EC50, positive modulation of EC20 GABA current
# Chain of hGABAA α2β3γ2 (P47869 29-451): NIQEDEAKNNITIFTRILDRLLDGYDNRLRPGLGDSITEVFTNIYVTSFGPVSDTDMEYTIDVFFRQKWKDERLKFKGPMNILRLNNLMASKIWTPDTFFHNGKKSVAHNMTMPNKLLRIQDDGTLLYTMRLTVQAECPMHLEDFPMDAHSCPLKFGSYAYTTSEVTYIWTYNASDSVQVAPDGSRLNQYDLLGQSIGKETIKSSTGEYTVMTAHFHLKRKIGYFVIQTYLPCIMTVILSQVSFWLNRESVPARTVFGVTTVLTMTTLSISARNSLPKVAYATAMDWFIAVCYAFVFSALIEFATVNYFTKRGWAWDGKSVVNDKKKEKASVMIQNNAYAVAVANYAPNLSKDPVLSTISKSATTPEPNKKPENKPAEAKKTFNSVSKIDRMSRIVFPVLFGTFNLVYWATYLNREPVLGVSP
# Chain of hGABAA α2β3γ2 (P28472 26-473): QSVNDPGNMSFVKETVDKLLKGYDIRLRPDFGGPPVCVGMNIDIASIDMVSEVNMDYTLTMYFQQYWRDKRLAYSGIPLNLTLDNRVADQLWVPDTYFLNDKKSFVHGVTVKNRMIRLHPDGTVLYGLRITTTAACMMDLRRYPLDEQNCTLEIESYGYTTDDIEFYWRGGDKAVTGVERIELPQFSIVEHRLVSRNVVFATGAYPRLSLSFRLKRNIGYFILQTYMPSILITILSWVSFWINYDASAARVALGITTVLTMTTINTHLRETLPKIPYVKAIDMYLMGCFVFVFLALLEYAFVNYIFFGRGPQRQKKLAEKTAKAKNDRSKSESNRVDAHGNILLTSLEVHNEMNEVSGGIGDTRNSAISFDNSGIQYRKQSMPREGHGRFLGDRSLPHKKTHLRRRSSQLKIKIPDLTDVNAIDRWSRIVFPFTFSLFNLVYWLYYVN
# Chain of hGABAA α2β3γ2 (P18507 40-475): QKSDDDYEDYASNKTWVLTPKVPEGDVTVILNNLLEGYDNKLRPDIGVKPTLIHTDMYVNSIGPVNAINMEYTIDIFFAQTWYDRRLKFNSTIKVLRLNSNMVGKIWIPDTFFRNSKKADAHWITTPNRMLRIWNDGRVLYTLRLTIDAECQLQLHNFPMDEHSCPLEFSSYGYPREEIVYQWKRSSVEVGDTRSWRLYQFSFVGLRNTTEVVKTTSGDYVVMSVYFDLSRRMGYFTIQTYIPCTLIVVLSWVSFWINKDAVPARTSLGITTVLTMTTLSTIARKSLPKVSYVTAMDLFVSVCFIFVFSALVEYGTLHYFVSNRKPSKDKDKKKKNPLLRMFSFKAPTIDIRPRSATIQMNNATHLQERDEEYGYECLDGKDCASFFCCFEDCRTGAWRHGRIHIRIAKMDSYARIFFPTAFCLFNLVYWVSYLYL
# Chain of hGABAA α1β3γ2 (P14867 28-456): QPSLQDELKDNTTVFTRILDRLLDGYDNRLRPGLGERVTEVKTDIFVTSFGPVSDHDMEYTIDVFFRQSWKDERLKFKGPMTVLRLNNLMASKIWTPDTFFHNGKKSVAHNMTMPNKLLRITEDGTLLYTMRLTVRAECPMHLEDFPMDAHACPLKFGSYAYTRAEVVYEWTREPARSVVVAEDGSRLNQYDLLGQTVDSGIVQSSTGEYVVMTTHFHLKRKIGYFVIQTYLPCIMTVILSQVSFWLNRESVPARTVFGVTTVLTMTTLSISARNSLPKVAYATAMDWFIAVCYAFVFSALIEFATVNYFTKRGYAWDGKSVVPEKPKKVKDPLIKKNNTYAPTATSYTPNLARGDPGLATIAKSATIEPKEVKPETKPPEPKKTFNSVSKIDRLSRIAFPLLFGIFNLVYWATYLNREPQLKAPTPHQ
# Chain of hGABAA α1β3γ2 (P28472 26-473): as the sequence (P28472 26-473) above
# Chain of hGABAA α1β3γ2 (P18507 40-475): as the sequence (P18507 40-475) above
compound,measurement,setting,value
Cc1ccc(-c2nc3ccc(C)cn3c2CC(=O)N(C)C)cc1 [Zolpidem],Mean Maximal Effect (% of Control),hGABAA α2β3γ2,304 % of Control
same,(%) Control mean,hGABAA α1β3γ2; 0.001 μM + EC20 GABA,110.7 % Control
same,(%) Control n1,hGABAA α1β3γ2; 0.001 μM + EC20 GABA,116.2 % Control
same,(%) Control n2,hGABAA α1β3γ2; 0.001 μM + EC20 GABA,105.2 % Control
same,(%) Control mean,hGABAA α1β3γ2; 0.01 μM + EC20 GABA,141.9 % Control
same,(%) Control n1,hGABAA α1β3γ2; 0.01 μM + EC20 GABA,144.3 % Control
same,(%) Control n2,hGABAA α1β3γ2; 0.01 μM + EC20 GABA,139.4 % Control
same,(%) Control mean,hGABAA α1β3γ2; 0.1 μM + EC20 GABA,267.3 % Control
same,(%) Control n1,hGABAA α1β3γ2; 0.1 μM + EC20 GABA,278.5 % Control
same,(%) Control n2,hGABAA α1β3γ2; 0.1 μM + EC20 GABA,256.1 % Control
same,(%) Control mean,hGABAA α1β3γ2; 1 μM + EC20 GABA,292.4 % Control
same,(%) Control n1,hGABAA α1β3γ2; 1 μM + EC20 GABA,294.8 % Control
same,(%) Control n2,hGABAA α1β3γ2; 1 μM + EC20 GABA,290.1 % Control
same,(%) Control mean,hGABAA α1β3γ2; 10 μM + EC20 GABA,318.1 % Control
same,(%) Control n1,hGABAA α1β3γ2; 10 μM + EC20 GABA,326.1 % Control
same,(%) Control n2,hGABAA α1β3γ2; 10 μM + EC20 GABA,310.1 % Control
same,(%) Control mean,hGABAA α1β3γ2; 100 μM + EC20 GABA,330.6 % Control
same,(%) Control n1,hGABAA α1β3γ2; 100 μM + EC20 GABA,349.7 % Control
same,(%) Control n2,hGABAA α1β3γ2; 100 μM + EC20 GABA,311.6 % Control
same,Mean Maximal Effect (% of Control),hGABAA α1β3γ2,331 % of Control
CN1CCN(C(=O)O[C@H]2c3nccnc3C(=O)N2c2ccc(Cl)cn2)CC1 [Eszopiclone],pEC50,hGABAA α2β3γ2; [1],6.79
same,Mean Maximal Effect (% of Control),hGABAA α2β3γ2,213 % of Control
same,(%) Control mean,hGABAA α1β3γ2; 0.001 μM + EC20 GABA,105.7 % Control
same,(%) Control n1,hGABAA α1β3γ2; 0.001 μM + EC20 GABA,97.8 % Control
same,(%) Control n2,hGABAA α1β3γ2; 0.001 μM + EC20 GABA,113.5 % Control
same,(%) Control mean,hGABAA α1β3γ2; 0.01 μM + EC20 GABA,140.3 % Control
same,(%) Control n1,hGABAA α1β3γ2; 0.01 μM + EC20 GABA,132.0 % Control
same,(%) Control n2,hGABAA α1β3γ2; 0.01 μM + EC20 GABA,148.7 % Control
same,(%) Control mean,hGABAA α1β3γ2; 0.1 μM + EC20 GABA,252.4 % Control
same,(%) Control n1,hGABAA α1β3γ2; 0.1 μM + EC20 GABA,242.3 % Control
same,(%) Control n2,hGABAA α1β3γ2; 0.1 μM + EC20 GABA,262.5 % Control
same,(%) Control mean,hGABAA α1β3γ2; 1 μM + EC20 GABA,247.6 % Control
same,(%) Control n1,hGABAA α1β3γ2; 1 μM + EC20 GABA,267.4 % Control
same,(%) Control n2,hGABAA α1β3γ2; 1 μM + EC20 GABA,227.7 % Control
same,(%) Control mean,hGABAA α1β3γ2; 10 μM + EC20 GABA,252.4 % Control
same,(%) Control n1,hGABAA α1β3γ2; 10 μM + EC20 GABA,262.3 % Control
same,(%) Control n2,hGABAA α1β3γ2; 10 μM + EC20 GABA,242.5 % Control
same,(%) Control mean,hGABAA α1β3γ2; 100 μM + EC20 GABA,234.7 % Control
same,(%) Control n1,hGABAA α1β3γ2; 100 μM + EC20 GABA,258.5 % Control
same,(%) Control n2,hGABAA α1β3γ2; 100 μM + EC20 GABA,210.8 % Control
same,pEC50,hGABAA α1β3γ2; [1],7.92
same,Mean Maximal Effect (% of Control),hGABAA α1β3γ2,252 % of Control
CN1C(=O)CN=C(c2ccccc2)c2cc(Cl)ccc21 [Diazepam],(%) Control mean,hGABAA α2β3γ2; 0.003 μM + EC20 GABA,116.0 % Control and 114.8 % Control and 100.4 % Control
same,(%) Control n1,hGABAA α2β3γ2; 0.003 μM + EC20 GABA,113.8 % Control and 112.4 % Control and 113.2 % Control
same,(%) Control n2,hGABAA α2β3γ2; 0.003 μM + EC20 GABA,118.1 % Control and 117.2 % Control and 87.7 % Control
same,(%) Control mean,hGABAA α2β3γ2; 0.01 μM + EC20 GABA,135.3 % Control and 124.0 % Control and 118.1 % Control
same,(%) Control n1,hGABAA α2β3γ2; 0.01 μM + EC20 GABA,131.2 % Control and 123.3 % Control and 122.4 % Control
same,(%) Control n2,hGABAA α2β3γ2; 0.01 μM + EC20 GABA,139.3 % Control and 124.7 % Control and 113.8 % Control
same,(%) Control mean,hGABAA α2β3γ2; 0.03 μM + EC20 GABA,162.5 % Control and 158.2 % Control and 142.3 % Control
same,(%) Control n1,hGABAA α2β3γ2; 0.03 μM + EC20 GABA,155.2 % Control and 156.2 % Control and 150.5 % Control
same,(%) Control n2,hGABAA α2β3γ2; 0.03 μM + EC20 GABA,169.9 % Control and 160.3 % Control and 134.2 % Control
same,(%) Control mean,hGABAA α2β3γ2; 0.1 μM + EC20 GABA,252.4 % Control and 255.8 % Control and 206.0 % Control
same,(%) Control n1,hGABAA α2β3γ2; 0.1 μM + EC20 GABA,261.1 % Control and 261.6 % Control and 216.8 % Control
same,(%) Control n2,hGABAA α2β3γ2; 0.1 μM + EC20 GABA,243.8 % Control and 249.9 % Control and 195.1 % Control
same,(%) Control mean,hGABAA α2β3γ2; 0.3 μM + EC20 GABA,253.5 % Control and 261.6 % Control and 214.1 % Control
same,(%) Control n1,hGABAA α2β3γ2; 0.3 μM + EC20 GABA,267.8 % Control and 260.9 % Control and 230.4 % Control
same,(%) Control n2,hGABAA α2β3γ2; 0.3 μM + EC20 GABA,239.3 % Control and 262.3 % Control and 197.8 % Control
same,(%) Control mean,hGABAA α2β3γ2; 1 μM + EC20 GABA,262.3 % Control and 269.3 % Control and 224.3 % Control
same,(%) Control n1,hGABAA α2β3γ2; 1 μM + EC20 GABA,274.0 % Control and 285.9 % Control and 235.0 % Control
same,(%) Control n2,hGABAA α2β3γ2; 1 μM + EC20 GABA,250.6 % Control and 252.8 % Control and 213.6 % Control
same,Mean Maximal Effect (% of Control),hGABAA α2β3γ2,262 % of Control and 269 % of Control and 224 % of Control
same,(%) Control mean,hGABAA α1β3γ2; 0.003 μM + EC20 GABA,124.0 % Control and 122.6 % Control and 125.3 % Control
same,(%) Control n1,hGABAA α1β3γ2; 0.003 μM + EC20 GABA,123.6 % Control and 125.3 % Control and 121.6 % Control
same,(%) Control n2,hGABAA α1β3γ2; 0.003 μM + EC20 GABA,124.3 % Control and 119.9 % Control and 129.0 % Control
same,(%) Control mean,hGABAA α1β3γ2; 0.01 μM + EC20 GABA,148.4 % Control and 139.6 % Control and 149.7 % Control
same,(%) Control n1,hGABAA α1β3γ2; 0.01 μM + EC20 GABA,149.5 % Control and 141.4 % Control and 137.2 % Control
same,(%) Control n2,hGABAA α1β3γ2; 0.01 μM + EC20 GABA,147.2 % Control and 137.8 % Control and 162.2 % Control
same,(%) Control mean,hGABAA α1β3γ2; 0.03 μM + EC20 GABA,186.5 % Control and 171.8 % Control and 193.2 % Control
same,(%) Control n1,hGABAA α1β3γ2; 0.03 μM + EC20 GABA,182.7 % Control and 182.4 % Control and 169.0 % Control
same,(%) Control n2,hGABAA α1β3γ2; 0.03 μM + EC20 GABA,190.3 % Control and 161.2 % Control and 217.4 % Control
same,(%) Control mean,hGABAA α1β3γ2; 0.1 μM + EC20 GABA,250.0 % Control and 234.6 % Control and 223.1 % Control
same,(%) Control n1,hGABAA α1β3γ2; 0.1 μM + EC20 GABA,230.0 % Control and 227.4 % Control and 232.1 % Control
same,(%) Control n2,hGABAA α1β3γ2; 0.1 μM + EC20 GABA,269.9 % Control and 241.8 % Control and 214.1 % Control
same,(%) Control mean,hGABAA α1β3γ2; 0.3 μM + EC20 GABA,298.9 % Control and 284.3 % Control and 269.3 % Control
same,(%) Control n1,hGABAA α1β3γ2; 0.3 μM + EC20 GABA,265.9 % Control and 275.1 % Control and 262.8 % Control
same,(%) Control n2,hGABAA α1β3γ2; 0.3 μM + EC20 GABA,331.8 % Control and 293.6 % Control and 275.8 % Control
same,(%) Control mean,hGABAA α1β3γ2; 1 μM + EC20 GABA,317.0 % Control and 310.4 % Control and 314.3 % Control
same,(%) Control n1,hGABAA α1β3γ2; 1 μM + EC20 GABA,284.9 % Control and 296.1 % Control and 284.8 % Control
same,(%) Control n2,hGABAA α1β3γ2; 1 μM + EC20 GABA,349.1 % Control and 324.7 % Control and 343.8 % Control
same,Mean Maximal Effect (% of Control),hGABAA α1β3γ2,317 % of Control and 310 % of Control and 314 % of Control
